Series [1] is described as follows: Plasma 2-AAA level in mice supplemented with 2-AAA. Conditions: 500 mg/kg/day via drinking water; by one week of treatment; p=0.018. It is filed as in vivo. Here is the method:
(§1) Intervention studies in mice were completed to examine whether 2-AAA might play a contributory or compensatory role in glucose homeostasis by performing 2-AAA. For this study, four independent cohorts of 24 C57B/L6 male mice entered the study protocol at 6 weeks of age. Two cohorts received the standard chow diet and two cohorts received a high-fat diet. Half of the mice assigned to each diet received 2-AAA (500 mg/kg/day equivalent to a starting dose of 12.03±0.30 mM) via the drinking water for up to five weeks. Pre-weighed food and water were administered to each cage. Food and water intake was monitored weekly. Mice supplemented with 2-AAA had 33% higher plasma levels of this metabolite by one week of treatment (p=0.018).
For the perigonadal adipose tissue, metabolites were first extracted by mixing harvested tissues with 6 μL per 1 mg of adipose tissue of a MeOH:Chloroform solution (2:1 v/v). The extracted adipose tissues were then homogenized for 4 minutes at 25 Hz in a TissueLyser II. […] A calibration curve using 2-AAA d3 (C/D/N Isotopes Inc, Quebec Canada) was generated for absolute quantitation of 2-AAA in plasma and tissue samples. […] An isotopically labeled standard was used to facilitate absolute quantitation of the metabolite of interest in the setting of the different biological matrices.

The nature of series [2]: Food intake and weight in control and 2-AAA treated mice. The class given is in vivo. To be noted: 2-AAA 500 mg/kg/day via drinking water, up to 5 weeks.
Text: FIGS. 3A and 3B are graphs depicting serial weights and food intake in control and 2-AAA treated animals.
as §1
Fasting plasma glucose levels were measured weekly in mice fed either a standard chow (left) or high-fat diet (right) beginning at 6 weeks of age, with simultaneous 2-AAA treatment via drinking water (500/mg/kg/day) or water alone for the subsequent 5 weeks. (n=24 mice per condition) (*p<0.05; **p<0.01; ***p<0.001). For mice on the SCD, fasting glucose levels were 109.5±3.8 mg/dL for the 2-aminoadipic treated animals as compared to 124.5±4.9 mg/dL, for the untreated controls after 5 weeks (p<0.01, FIG. 2A). […]

Series [3] has as its system Beta TC6 (BTC6) cells. Description: Insulin secretion by BTC6 pancreatic beta cell line. To be noted: for insulin secretion: 100 μM, 2.5 mM glucose. It is filed as cell-based, mouse. Here is the method: FIG. 8A is a graph depicting percent insulin secretion by BTC6 cells following incubation with 2-AAA at concentrations ranging from 0 to 100 μM for 0.5 to 72 hours.
FIG. 8B is a graph depicting the effects of 2-AAA (30 μM), clonidine (100 μM) and phentolamine (100 μM) on insulin secretion by BTC6 cells.
To investigate the connection between 2-AAA and the pancreas, insulin production by a pancreatic beta cell line that was acutely and chronically exposed to 2-AAA. Beta TC6 (BTC6) cells, an established model to examine insulin secretion (mouse insulinoma beta-TC-6 (ATCC® CRL-11506™) from ATCC (Manassas, Va.)) (27-29), were used at passage number 4-7, grown in DMEM (ATCC 2002-30), 15% FBS, with penicillin/streptomycin (100 IU/ml/100 μg/ml). Cells were plated on 24 well collagen plates at 40,000 cells per well, incubated with 2-AAA at varying concentrations ranging from 0 to 100 μM for 0 to 72 hours to assess whether this compound increases insulin secretion in a time and/or dose dependent fashion. On the day of experimentation, the cells were washed with PBS and the media was changed to DMEM without FBS or glucose to which 0.1% BSA was added. After 1 hour of incubation, this media was changed to serum free media containing 2.5 mM of glucose. Insulin production was measured in the supernatant after 1 additional hour of incubation. To assess the time response relationship, 2-AAA was added to the cells after plating on collagen and incubated for 0.5, 2, 6, and 72 hours.

The subject of series [4] is C57B/L6 male mice. Description: Intra-peritoneal glucose tolerance test (IPGTT) after chronic 2-AAA treatment. The class given is in vivo. To be noted: IPGTT 1.5 mg/g; mice fed SCD and HFD for 5 weeks or greater. Here is the method:
FIG. 4 is a graph depicting plasma glucose levels in 2-AAA mice fed either a standard chow (left) or high-fat diet (right) following IPGTT challenge after completion of the 2-AAA chronic treatment in mice fed either the standard chow or high-fat diet. (n=12 mice per condition) (*p<0.05; **p<0.01).
(§2) Fasting insulin levels in mice were measured by an ELISA kit (Crystal Chem Inc., Downers Grove Ill.). After 5 weeks of 2-AAA treatment, and following a 6-hour fast, each group of mice was administered an intra-peritoneal glucose tolerance test (IPGTT; 1.5 mg/g of body weight; 75 mg/mL of glucose solution) or an insulin tolerance test (ITT; 0.00075 U of insulin/g of body weight, 0.15 U/ml insulin solution, Sigma-Aldrich, St. Louis, Mo.). For the IPGTT, venous blood samples were obtained from the tail vein immediately prior to glucose injection and then serially at 30, 60, and 120 minutes following the injection. For the ITT, venous blood samples were obtained from the tail vein immediately prior to the insulin injection and then serially at 15, 30, 45 and 60 minutes following the injection.
(§3) Additional studies were performed using acute physiologic challenges, including acute glucose and insulin administration. As expected, mice fed a HFD had more pronounced glucose excursions following the glucose challenge (FIG. 4). […]

Series [5] concerns C57B/L6 male mice. The experiment in a line: Fasting plasma glucose in mice given 2-AAA chronically via drinking water. To be noted: for fasting glucose levels: 2-AAA 500 mg/kg/day via drinking water, mean ± SEM. The class given is in vivo. Here is the method:
FIGS. 2A and B are graphs depicting fasting plasma glucose levels in 2-AAA in mice fed either a standard chow (2A) or high-fat diet (2B). Fasting plasma glucose levels were measured weekly in mice fed either a standard chow (left) or high-fat diet (right) beginning at 6 weeks of age, with simultaneous 2-AAA treatment via drinking water (500/mg/kg/day) or water alone for the subsequent 5 weeks. (n=24 mice per condition) (*p<0.05; **p<0.01; ***p<0.001).
The effect of a Western-style diet on circulating 2-AAA levels in mice was examined. C57BL/6 male mice (Jackson Laboratories, Bar Harbor, Me.) were housed in separate cages with free access to food and water. Mice were fed a standard chow diet containing 22.5% protein, 52% carbohydrates, 6% fat, 6% ash and 4% fiber (Prolab Isopro RMH 3000, Brentwood, Mo.) or a high-fat diet containing 20 kcal % protein, 20 kcal % carbohydrate and 60 kcal % fat (DIO formula, D12492, Research Diets, Inc, New Brunswick, N.J.) as indicated. The total energy equivalent was 3.46 kcal/gm for the standard chow diet and 5.24 kcal/gm for the high fat diet.
as §1
Fasting plasma glucose levels were measured weekly in mice fed either a standard chow (left) or high-fat diet (right) beginning at 6 weeks of age, with simultaneous 2-AAA treatment via drinking water (500/mg/kg/day) or water alone for the subsequent 5 weeks. […]

Series [6] concerns C57B/L6 male mice. Description: Insulin tolerance test (ITT, acute insulin challenge) after 2-AAA treatment. It is filed as in vivo. To be noted: ITT 0.00075 U insulin/g; SCD and HFD. The method, then: FIGS. 6A and 6B are graphs depicting plasma glucose levels 2-AAA mice fed either a standard chow (left) or high-fat diet (right) measured following acute insulin challenge (n=15 per condition).
as §2
Additional studies were performed using acute physiologic challenges, including acute glucose and insulin administration. As expected, mice fed a HFD had more pronounced glucose excursions following the glucose challenge (FIG. 4). In mice fed both the SCD and HFD for 5 weeks or greater, peak glucose concentrations following the glucose challenge were lower in the 2-AAA treated mice. […]

The subject of series [7] is Islets from male C57BL/6J mice. Description: Insulin secretion from isolated mouse islets. The class given is cell-based. To be noted: 30 μM 2-AAA for 6 hours; 2.5 mmol/l glucose; normalized to islet content. The method, then: FIG. 9 is a graph depicting insulin secretion from islets isolated from male C57BL/6J mice following incubation with 30 μM 2-AAA for 6 hours. Insulin was assayed using the Meso Scale Discovery multi array assay system for mouse/rat total insulin (Gaithersburg, Md., USA). Secretion was normalized to islet content. (n=3, p=0.016)
Islets from male C57BL/6J mice were isolated by collagenase digestion of the pancreas, purified by Ficoll density gradient and then handpicked. Mouse islets were cultured for 24 hours as previously described (26). For insulin secretion experiments, 15 islets were placed in each microcentrifuge tube and incubated in islet secretion buffer containing (in mmol/1) 120 NaCl, 5 KCl, 1 CaCl2, 1.2 MgCl2, 24 NaHCO3, 10 HEPES, and 2.5 glucose, bubbled with 95% O2/5% CO2 and supplemented with 0.5% (wt/vol) BSA. Experiments were performed by incubating islets in 1 ml of secretion buffer in the presence or absence of 30 μM 2-AAA for 6 hours at 37° C., 5% CO2. Insulin was assayed using the Meso Scale Discovery multi array assay system for mouse/rat total insulin (Gaithersburg, Md., USA). Secretion was normalized to islet content.

Series [8] concerns C57B/L6 male mice. Description: Fasting plasma insulin levels (ELISA) after 2-AAA treatment. To be noted: after 5 weeks of 2-AAA; increase seen in HFD animals. The class given is in vivo. Here is the method:
FIG. 5 is a graph depicting fasting plasma insulin levels in 2-AAA mice fed either a standard chow (left) or high-fat diet (right) measured following completion of the 2-AAA treatment (5 weeks) in the mice on both diets (n=12 mice per condition) (*p<0.05).
as §2, §3

Experimental findings from patent US20160030373A1, “2-AAA as a Biomarker and Therapeutic Agent for Diabetes” (THE GENERAL HOSPITAL CORPORATION, priority 2013, published 2016) are described below.

Each structure is given as a SMILES string.

Consider `N[C@H](CCCC(=O)O)C(=O)O` (stereo in doubt) [2-AAA, 2-aminoadipic acid], for which the “increase in plasma levels of 2-AAA versus unsupplemented mice” value in series [1] is on record as 33%. The “differences in food intake or weight between treated and control mice” value in series [2] is “no significant differences”. Besides, the “insulin secretion from BTC6 cells” value in series [3] (2-AAA 0 to 100 μM for 0.5 to 72 hours) was “induced insulin secretion from BTC6 cells in a dose and time dependent fashion”. In addition, the “incubation time at which augmented insulin secretion was evident” value in series [3] (BTC6 cells) is “at least 6 hours”. For the same molecule, the “peak insulin secretion relative to that of phentolamine (172±8% of control)” value in series [3] (BTC6 cells, 2-AAA 30 μM vs phentolamine 100 μM) is “comparable”. The “peak glucose concentrations following the glucose challenge versus control” value in series [4] is “lower”. Further, in series [5] (both diets, p<0.001 by 2-way ANOVA after 5 weeks), the “fasting glucose levels in treated mice versus water alone” value is on record as “consistently lower”. Besides, the fasting glucose levels in series [5] (mice on high-fat diet (HFD), at 5 weeks) is 134.5 ± 5.9 mg/dL; in series [5] (mice on standard chow diet (SCD), after 5 weeks) it was 109.5 ± 3.8 mg/dL. For the same molecule, the “effect on rate of decline in glucose levels following acute insulin challenge” value in series [6] is recorded as “no effect”. Further, the “insulin release from islets” value in series [7] is listed as “release insulin”. Besides, the “fasting insulin levels versus untreated animals” value in series [8] is on record as “further augmented”.

Turning to `Clc1cccc(Cl)c1N=C1NCCN1` [clonidine, reference compound], the insulin secretion in series [3] (BTC6 cells) is 60±3 % of control.

Take `Cc1ccc(N(CC2=NCCN2)c2cccc(O)c2)cc1` [phentolamine, reference compound]: in series [3] (BTC6 cells), the insulin secretion was 172±8 % of control.
